Measurements taken from ChEMBL document CHEMBL1137934, “Inhibition of monoamine oxidases by coumarin-3-acyl derivatives: biological activity and computational study” (Bioorg Med Chem Lett, 2004).

Columns and labels:
[1] = target: Amine oxidase [flavin-containing] B (Bos taurus) (UniProt P56560)
[2] = target: Amine oxidase [flavin-containing] A (Bos taurus) (UniProt P21398)

Amine oxidase [flavin-containing] B (Bos taurus), sequence (P56560 whole entry, looked up): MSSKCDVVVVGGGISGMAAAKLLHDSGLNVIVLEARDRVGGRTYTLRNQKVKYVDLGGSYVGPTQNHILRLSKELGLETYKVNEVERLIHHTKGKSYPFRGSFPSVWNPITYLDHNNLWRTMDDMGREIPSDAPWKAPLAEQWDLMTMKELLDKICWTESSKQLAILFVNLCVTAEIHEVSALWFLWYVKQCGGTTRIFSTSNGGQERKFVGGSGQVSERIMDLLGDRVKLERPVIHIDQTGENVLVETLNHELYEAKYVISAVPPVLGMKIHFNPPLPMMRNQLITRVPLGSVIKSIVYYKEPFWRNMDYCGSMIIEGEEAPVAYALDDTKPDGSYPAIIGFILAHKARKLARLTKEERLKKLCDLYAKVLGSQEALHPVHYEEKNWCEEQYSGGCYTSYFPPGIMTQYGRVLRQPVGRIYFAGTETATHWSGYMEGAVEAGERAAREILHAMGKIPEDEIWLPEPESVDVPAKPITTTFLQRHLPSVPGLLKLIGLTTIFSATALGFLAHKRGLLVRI

## CCOC(=O)C1=Cc2cc(Cl)ccc2CC1=O
[1]
  IC50: 1 µM
[2]
  IC50: 0.501 µM
